Assay results as given in ChEMBL document CHEMBL1142022, “Synthesis and evaluation of diverse analogs of amygdalin as potential peptidomimetics of peptide T” (Bioorg Med Chem Lett, 2005).

Key:
Type in all cases: functional
[1] = molecular target: T-cell surface glycoprotein CD4 (Homo sapiens) (UniProt P01730); assay: Chemotactic activity of compound measured as function of concentration of 6 uM compared to peptide T,[DA1a]peptide T and amygdalin
[2] = molecular target: T-cell surface glycoprotein CD4 (Homo sapiens) (UniProt P01730); assay: Chemotactic activity of compound measured as function of concentration of 11 uM compared to peptide T,[DA1a]peptide T and amygdalin
[3] = molecular target: T-cell surface glycoprotein CD4 (Homo sapiens) (UniProt P01730); assay: Chemotactic activity of compound measured as function of concentration of 7 uM compared to peptide T,[DA1a]peptide T and amygdalin
[4] = molecular target: T-cell surface glycoprotein CD4 (Homo sapiens) (UniProt P01730); assay: Chemotactic activity of compound measured as function of concentration of 8 uM compared to peptide T,[DA1a]peptide T and amygdalin
[5] = molecular target: T-cell surface glycoprotein CD4 (Homo sapiens) (UniProt P01730); assay: Chemotactic activity of compound measured as function of concentration of 10 uM compared to peptide T,[DA1a]peptide T and amygdalin
[6] = molecular target: T-cell surface glycoprotein CD4 (Homo sapiens) (UniProt P01730); assay: Chemotactic activity of compound measured as function of concentration of 9 uM compared to peptide T,[DA1a]peptide T and amygdalin

`C#CC(O[C@@H]1O[C@@H](CO[C@@H]2O[C@@H](CO)[C@@H](O)[C@H](O)[C@@H]2O)[C@@H](O)[C@H](O)[C@@H]1O)c1ccccc1` (stereo not given in full) was tested, and the Chemotactic index [1] was 0.79.

`C[C@@H](N)C(=O)N[C@@H](CO)C(=O)N[C@H](C(=O)N[C@H](C(=O)N[C@H](C(=O)N[C@@H](CC(N)=O)C(=O)N[C@@H](Cc1ccc(O)cc1)C(=O)N[C@H](C(N)=O)[C@@H](C)O)[C@@H](C)O)[C@@H](C)O)[C@@H](C)O` showed a Chemotactic index [2] of 0.89.

In the case of `NC(=O)[C@H](O[C@@H]1O[C@@H](CO[C@@H]2O[C@@H](CO)[C@@H](O)[C@H](O)[C@@H]2O)[C@@H](O)[C@H](O)[C@@H]1O)c1ccccc1`, the Chemotactic index [3] is reported as 0.84.

`OC[C@@H]1O[C@@H](OC[C@@H]2O[C@@H](OCc3ccccc3)[C@@H](O)[C@@H](O)[C@@H]2O)[C@@H](O)[C@@H](O)[C@@H]1O` gave a Chemotactic index [4] of 0.76.

`COc1ccc(CO[C@@H]2O[C@@H](CO[C@@H]3O[C@@H](CO)[C@@H](O)[C@H](O)[C@@H]3O)[C@@H](O)[C@H](O)[C@@H]2O)cc1` gave a Chemotactic index [5] of 0.87.

With `OC[C@@H]1O[C@@H](OC[C@@H]2O[C@@H](OCc3ccccc3Br)[C@@H](O)[C@@H](O)[C@@H]2O)[C@@H](O)[C@@H](O)[C@@H]1O` the Chemotactic index [5] was 0.94.

With `CC(C)(C)C(O[C@@H]1O[C@@H](CO[C@@H]2O[C@@H](CO)[C@@H](O)[C@H](O)[C@@H]2O)[C@@H](O)[C@H](O)[C@@H]1O)c1ccccc1` (stereo not given in full) the Chemotactic index [6] was 0.84.

`O=C(O)[C@H](O[C@@H]1O[C@@H](CO[C@@H]2O[C@@H](CO)[C@@H](O)[C@H](O)[C@@H]2O)[C@@H](O)[C@H](O)[C@@H]1O)c1ccccc1` showed a Chemotactic index [6] of 0.71.

In the case of `C[C@H](N)C(=O)N[C@@H](CO)C(=O)N[C@H](C(=O)N[C@H](C(=O)N[C@H](C(=O)N[C@@H](CC(N)=O)C(=O)N[C@@H](Cc1ccc(O)cc1)C(=O)N[C@H](C(=O)O)[C@@H](C)O)[C@@H](C)O)[C@@H](C)O)[C@@H](C)O`, the Chemotactic index [2] is reported as 1.09.

With `COc1ccc(CO[C@@H]2O[C@@H](CO[C@@H]3O[C@@H](CO)[C@@H](O)[C@H](O)[C@@H]3O)[C@@H](O)[C@H](O)[C@@H]2O)c(OC)c1` the Chemotactic index [5] was 0.84.

With `CCC(O[C@@H]1O[C@@H](CO[C@@H]2O[C@@H](CO)[C@@H](O)[C@H](O)[C@@H]2O)[C@@H](O)[C@H](O)[C@@H]1O)c1ccccc1` (stereo not given in full) the Chemotactic index [1] was 0.75.

Work on `OC[C@@H]1O[C@@H](OC[C@@H]2O[C@@H](OCCc3ccccc3)[C@@H](O)[C@@H](O)[C@@H]2O)[C@@H](O)[C@@H](O)[C@@H]1O` yielded a Chemotactic index [6] of 0.7.

In the case of `OC[C@@H]1O[C@@H](OC[C@@H]2O[C@@H](OCc3c4ccccc4cc4ccccc34)[C@@H](O)[C@@H](O)[C@@H]2O)[C@@H](O)[C@@H](O)[C@@H]1O`, the Chemotactic index [4] is reported as 0.94.

`N#CC(O[C@@H]1O[C@H](CO[C@@H]2O[C@H](CO)[C@@H](O)[C@H](O)[C@H]2O)[C@@H](O)[C@H](O)[C@H]1O)c1ccccc1` (single isomer, unassigned) showed a Chemotactic index [5] of 0.63.

`CC(O[C@@H]1O[C@@H](CO[C@@H]2O[C@@H](CO)[C@@H](O)[C@H](O)[C@@H]2O)[C@@H](O)[C@H](O)[C@@H]1O)c1ccccc1` (stereo not given in full) gave a Chemotactic index [4] of 0.77.
